In article PMC12114297 (Molecules, 2025):

Tests used:
[1] = biological target: T1, BChE from equine serum (eqBuChE) (Equus caballus, UniProt P81908); assay: biochemical; conditions: for IC50 / inhibition at 20 µM / BChE % of Inhibition (Conc. 20 μM): average ± standard error (n = 3); for inhibition at 20 µM: read-out: BChE % of Inhibition (Conc. 20 μM), 20 μM
T1 construct: BChE from equine serum (BChE, EC 3.1.1.8); purchased Sigma-Aldrich (St. Louis, MO, USA); host or cells: equine serum
Protocol: The in vitro cholinesterase inhibitory activity of the synthesized hybrid molecules was evaluated using a modified Ellman’s assay, optimized for 96-well microplate application. AChE from Electrophorus electricus (AChE, EC 3.1.1.7), BChE from equine serum (BChE, EC 3.1.1.8), acetylthiocholine iodide (ATCh), butyrylthiocholine iodide (BTCh), and 5,5′-dithiobis(2-nitrobenzoic acid) were purchased from Sigma-Aldrich (St. Louis, MO, USA) and used without further purification.
Test compounds were initially dissolved in dimethylsulphoxide (DMSO) to yield 1 mM stock solutions and subsequently diluted with 0.1 M phosphate buffer (pH 8.0) to prepare working solutions.
For the assay, 20 µL of compound solution was added to 140 µL of 0.1 M phosphate buffer (pH 8.0) in each well, followed by 20 µL of enzyme solution (AChE or BuChE, 100 U/L). After incubation at room temperature for 10 min, the reaction was initiated by adding 10 µL of DTNB (0.01 M) and 10 µL of substrate (ATCh or BTCh, 0.015 M). […] The percentage inhibition of enzyme activity was calculated using the following equation:(1) % Inhibition=Absorbance of control−Apsorbance of sample/Absorbance of control×100 where the absorbance of the control represents the maximum enzyme activity (without inhibition), and the absorbance of the sample corresponds to the enzyme activity in the presence of the tested compound. Appropriate blanks were included to account for background absorbance and to correct for any intrinsic color of the tested compounds.
All experiments were performed in triplicate.

[2] = tested on: Staphylococcus epidermidis ATCC 12228; assay: Agar well diffusion, S. epidermidis; format: cell-based; conditions: ATCC12228, read-out: Staphylococcus epidermidis ATCC 12228 ZOI, 60 µL of 1 mg/mL per well, ZOI including the well (6 mm), ± SD, n = 3, ciprofloxacin disk 5 μg
Protocol: (§1) The antimicrobial potential of the synthesized coumarin–triazole–isatin hybrids was evaluated by the agar well diffusion method. The activity was tested against a variety of Gram-positive bacteria (Staphylococcus aureus ATCC 25923 and ATCC 902710, Staphylococcus epidermidis ATCC 12228, Streptococcus pyogenes ATCC 19615, Enterococcus faecalis ATCC 51299), Gram-negative bacteria (Escherichia coli ATCC 25922, Haemophilus influenzae ATCC 49766, Pseudomonas aeruginosa ATCC 27853, Salmonella typhi ATCC 14028, Neisseria meningitidis ATCC 13090, Neisseria gonorrhoeae ATCC 43069), and fungi (Candida albicans ATCC 60193 and ATCC 90028, Candida orientalis ATCC 6258). All microbial strains were obtained from Microbiologics (St.Cloud, MN, USA).
(§2) The test compounds were dissolved in DMSO to obtain stock solutions (1 mg/mL). Each compound (60 µL) was transferred into wells (6 mm in diameter) that were previously perforated into agar plates inoculated with microbial suspensions standardized to 0.5 McFarland for bacteria and 2 McFarland for Candida spp. DMSO was used as a negative control, while commercial antibiotic disks of novobiocin (5 μg), ampicillin (10 μg), and ciprofloxacin (5 μg) served as positive controls. Antimicrobial activity was assessed by measuring the diameter of zones of inhibition (ZOIs) in millimeters. All tests were conducted in triplicate.

[3] = tested on: Staphylococcus aureus ATCC 25923; assay: Agar well diffusion, S. aureus; format: cell-based; conditions: for Antibacterial activity in words: agar well diffusion, particularly S. aureus; for zone of inhibition at 1000 µg/mL: Staphylococcus aureus, ATCC25923, 60 µL of 1 mg/mL per well, ZOI including the well (6 mm), ± SD, n = 3, ciprofloxacin disk 5 μg, read-out: Staphylococcus aureus ATCC 25923 ZOI
Protocol: as §1, §2

[4] = biological target: T2, AChE from Electrophorus electricus (eeAChE) (Electrophorus electricus, UniProt O42275); assay: biochemical; conditions: for inhibition at 20 µM: read-out: AChE % of Inhibition (Conc. 20 μM)
T2 construct: purchased Sigma-Aldrich (St. Louis, MO, USA)
T2 sequence (O42275 24-633): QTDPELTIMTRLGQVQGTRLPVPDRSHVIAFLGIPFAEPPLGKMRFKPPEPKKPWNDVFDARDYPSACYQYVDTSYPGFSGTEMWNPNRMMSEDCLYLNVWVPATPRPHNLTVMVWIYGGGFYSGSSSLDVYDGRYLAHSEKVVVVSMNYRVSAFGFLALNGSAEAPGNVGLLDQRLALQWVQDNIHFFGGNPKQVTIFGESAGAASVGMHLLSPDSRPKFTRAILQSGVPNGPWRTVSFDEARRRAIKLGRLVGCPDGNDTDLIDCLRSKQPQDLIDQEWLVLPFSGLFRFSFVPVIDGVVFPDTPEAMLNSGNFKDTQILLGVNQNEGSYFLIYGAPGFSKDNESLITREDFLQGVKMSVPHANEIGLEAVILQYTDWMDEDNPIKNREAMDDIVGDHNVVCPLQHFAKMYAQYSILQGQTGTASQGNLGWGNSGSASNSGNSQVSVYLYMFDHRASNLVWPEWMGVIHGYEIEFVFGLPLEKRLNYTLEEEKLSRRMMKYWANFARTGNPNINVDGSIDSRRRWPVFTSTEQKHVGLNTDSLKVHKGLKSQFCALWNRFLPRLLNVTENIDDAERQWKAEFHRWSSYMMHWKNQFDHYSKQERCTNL

T1 sequence (P81908 whole entry): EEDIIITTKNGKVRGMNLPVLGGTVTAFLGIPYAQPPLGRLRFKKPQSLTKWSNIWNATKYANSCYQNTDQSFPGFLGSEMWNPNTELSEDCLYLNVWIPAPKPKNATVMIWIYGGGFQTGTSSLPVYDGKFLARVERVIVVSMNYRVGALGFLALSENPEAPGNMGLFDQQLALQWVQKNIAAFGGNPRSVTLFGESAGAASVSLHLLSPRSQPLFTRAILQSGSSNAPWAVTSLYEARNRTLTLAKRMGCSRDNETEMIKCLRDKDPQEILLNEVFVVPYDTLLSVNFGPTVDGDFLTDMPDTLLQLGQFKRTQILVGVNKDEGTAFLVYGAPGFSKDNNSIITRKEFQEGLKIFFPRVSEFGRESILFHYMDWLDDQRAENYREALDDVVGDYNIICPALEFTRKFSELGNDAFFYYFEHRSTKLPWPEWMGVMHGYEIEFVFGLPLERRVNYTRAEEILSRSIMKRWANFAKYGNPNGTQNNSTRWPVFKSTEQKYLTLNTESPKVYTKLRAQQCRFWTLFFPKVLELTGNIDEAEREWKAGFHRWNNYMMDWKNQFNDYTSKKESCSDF

Structure (SMILES)	IC50 [1] [µM]	inhibition at 20 µM [1] [%]	zone of inhibition at 1000 µg/mL [2] [mm]	Antibacterial activity in words [3]	inhibition at 20 µM [4] [%]	BChE % of Inhibition (Conc. 20 μM) [1] [%]	Selectivity BChE/AChE ([1]; ratio of AChE and BChE IC50)	IC50 ([4]; average ± standard error (n = 3)) [µM]	zone of inhibition at 1000 µg/mL [3] [mm]
O=C1C(=O)N(Cc2cn(CCOc3cc(=O)oc4ccccc34)nn2)c2ccccc21 [Compound 6a1, 1-((1-(2-((2-oxo-2H-chromen-4-yl)oxy)ethyl)-1H-1,2,3-triazol-4-yl)methyl)indoline-2,3-dione]	6.08 ± 1.19	72.8 ± 2.17	6.08 ± 1.19	failed to exhibit significant activity	29.3 ± 2.14				
O=C1C(=O)N(Cc2cn(CCOc3cc(=O)oc4ccccc34)nn2)c2ccc(F)cc21 [Compound 6a2, 5-fluoro-1-((1-(2-((2-oxo-2H-chromen-4-yl)oxy)ethyl)-1H-1,2,3-triazol-4-yl)methyl)indoline-2,3-dione]	9.16 ± 1.69	66.2 ± 5.18	9.16 ± 1.69	failed to exhibit significant activity	11.8 ± 1.18				
O=C1C(=O)N(Cc2cn(CCOc3cc(=O)oc4ccccc34)nn2)c2ccc(Cl)cc21 [Compound 6a3, 5-chloro-1-((1-(2-((2-oxo-2H-chromen-4-yl)oxy)ethyl)-1H-1,2,3-triazol-4-yl)methyl)indoline-2,3-dione]	10.6 ± 1.13	62.6 ± 6.19	10.6 ± 1.13		5.57 ± 1.19				
O=C1C(=O)N(Cc2cn(CCOc3cc(=O)oc4ccccc34)nn2)c2ccc(I)cc21 [Compound 6a5, 5-iodo-1-((1-(2-((2-oxo-2H-chromen-4-yl)oxy)ethyl)-1H-1,2,3-triazol-4-yl)methyl)indoline-2,3-dione]		40.9 ± 6.26		largely inactive	3.17 ± 0.26				
O=C1C(=O)N(Cc2cn(CCOc3cc(=O)oc4ccccc34)nn2)c2ccc([N+](=O)[O-])cc21 [Compound 6a6, 5-nitro-1-((1-(2-((2-oxo-2H-chromen-4-yl)oxy)ethyl)-1H-1,2,3-triazol-4-yl)methyl)indoline-2,3-dione]		< 6		largely inactive	3.11 ± 0.44	4.89 ± 0.74			
Cc1ccc2c(c1)C(=O)C(=O)N2Cc1cn(CCOc2cc(=O)oc3ccccc23)nn1 [Compound 6a7, 5-methyl-1-((1-(2-((2-oxo-2H-chromen-4-yl)oxy)ethyl)-1H-1,2,3-triazol-4-yl)methyl)indoline-2,3-dione]				largely inactive	22.8 ± 3.66	2.91 ± 0.15			
O=C1C(=O)N(Cc2cn(CCCOc3cc(=O)oc4ccccc34)nn2)c2ccccc21 [Compound 6b1, 1-((1-(3-((2-oxo-2H-chromen-4-yl)oxy)propyl)-1H-1,2,3-triazol-4-yl)methyl)indoline-2,3-dione]	8.52 ± 1.28	69.2 ± 5.27	8.52 ± 1.28		69.2 ± 4.27		2.13	18.2 ± 1.19	
O=C1C(=O)N(Cc2cn(CCCOc3cc(=O)oc4ccccc34)nn2)c2ccc(F)cc21 [Compound 6b2, 5-fluoro-1-((1-(3-((2-oxo-2H-chromen-4-yl)oxy)propyl)-1H-1,2,3-triazol-4-yl)methyl)indoline-2,3-dione]	5.9 ± 1.09	75.5 ± 5.69	5.9 ± 1.09	only modest antibacterial effect	44.3 ± 5.69				9.33 ± 4.04
O=C1C(=O)N(Cc2cn(CCCOc3cc(=O)oc4ccccc34)nn2)c2ccc(Cl)cc21 [Compound 6b3, 5-chloro-1-((1-(3-((2-oxo-2H-chromen-4-yl)oxy)propyl)-1H-1,2,3-triazol-4-yl)methyl)indoline-2,3-dione]	11.3 ± 1.16	61.6 ± 7.24	11.2 ± 1.16	only modest antibacterial effect	31.5 ± 3.24				10.3 ± 1.15
O=C1C(=O)N(Cc2cn(CCCOc3cc(=O)oc4ccccc34)nn2)c2ccc(I)cc21 [Compound 6b5, 5-iodo-1-((1-(3-((2-oxo-2H-chromen-4-yl)oxy)propyl)-1H-1,2,3-triazol-4-yl)methyl)indoline-2,3-dione]	14.8 ± 1.44	61.6 ± 7.49	14.8 ± 1.44	largely inactive	27.6 ± 1.49				
O=C1C(=O)N(Cc2cn(CCCOc3cc(=O)oc4ccccc34)nn2)c2ccc([N+](=O)[O-])cc21 [Compound 6b6, 5-nitro-1-((1-(3-((2-oxo-2H-chromen-4-yl)oxy)propyl)-1H-1,2,3-triazol-4-yl)methyl)indoline-2,3-dione]		< 6		largely inactive	17.9 ± 1.91	5.89 ± 1.91			
Cc1ccc2c(c1)C(=O)C(=O)N2Cc1cn(CCCOc2cc(=O)oc3ccccc23)nn1 [Compound 6b7, 5-methyl-1-((1-(3-((2-oxo-2H-chromen-4-yl)oxy)propyl)-1H-1,2,3-triazol-4-yl)methyl)indoline-2,3-dione]				largely inactive	24.4 ± 1.27	4.88 ± 0.27			
O=C1C(=O)N(Cc2cn(CCCCOc3cc(=O)oc4ccccc34)nn2)c2ccc(Cl)cc21 [Compound 6c3, 5-chloro-1-((1-(4-((2-oxo-2H-chromen-4-yl)oxy)butyl)-1H-1,2,3-triazol-4-yl)methyl)indoline-2,3-dione]		5.19 ± 1.14		only weak antibacterial activity	44.2 ± 3.14				10.7 ± 3.06
O=C1C(=O)N(Cc2cn(CCCCOc3cc(=O)oc4ccccc34)nn2)c2ccc(Br)cc21 [Compound 6c4, 5-bromo-1-((1-(4-((2-oxo-2H-chromen-4-yl)oxy)butyl)-1H-1,2,3-triazol-4-yl)methyl)indoline-2,3-dione]		27.1 ± 2.19		only weak antibacterial activity	9.84 ± 1.19				12 to 20
O=C1C(=O)N(Cc2cn(CCCCOc3cc(=O)oc4ccccc34)nn2)c2ccc(I)cc21 [Compound 6c5, 5-iodo-1-((1-(4-((2-oxo-2H-chromen-4-yl)oxy)butyl)-1H-1,2,3-triazol-4-yl)methyl)indoline-2,3-dione]		22.9 ± 1.64		largely inactive	11.2 ± 1.64				
O=C1C(=O)N(Cc2cn(CCCCOc3cc(=O)oc4ccccc34)nn2)c2ccc([N+](=O)[O-])cc21 [Compound 6c6, 5-nitro-1-((1-(4-((2-oxo-2H-chromen-4-yl)oxy)butyl)-1H-1,2,3-triazol-4-yl)methyl)indoline-2,3-dione]		< 6		largely inactive	19 ± 1.96	4.15 ± 0.54			
Cc1ccc2c(c1)C(=O)C(=O)N2Cc1cn(CCCCOc2cc(=O)oc3ccccc23)nn1 [Compound 6c7, 5-methyl-1-((1-(4-((2-oxo-2H-chromen-4-yl)oxy)butyl)-1H-1,2,3-triazol-4-yl)methyl)indoline-2,3-dione]		< 11		largely inactive	12.1 ± 1.26	10.32 ± 1.53			
COc1cc2c(cc1OC)C(=O)C(CC1CCN(Cc3ccccc3)CC1)C2 (centres unmarked) [Donepezil, donepezil, reference compound]		74.2 ± 6.17							
